The values that follow come from US20250109118A1, “HETEROCYCLIC COMPOUNDS AS SHP2 INHIBITORS, COMPOSITIONS COMPRISING THE HETEROCYCLIC COMPOUND, AND METHODS OF USE THEREOF” (JS INNOMED HOLDINGS LTD., priority 2021, published 2025).

SMILES strings stand for the structures. Some results are limits rather than exact numbers.

The assay concerns MiaPaCa-2 cells. The assay can be described thus: MiaPaCa-2 Cell proliferation assay in 3D culture (CCK8). It is filed as cell-based. The settings on record: Homo sapiens, MIA PaCa-2, 120 h; 3D spheroid culture, 5 days with compound, CCK8 readout. As to the method: MiaPaCa-2 Cell proliferation assay in 3D culture. To evaluate cell viability, MiaPaCa-2 cells in logarithmic growth phase were seeded at optimal density and grown in as spheroids. Cells were incubated for 24 hours prior to the addition of different concentrations of the compounds. Cells were cultured with the compounds for 5 days and the cell viability was assessed using CCK8. Briefly, 2500 cells were seeded in round bottom ultra-low attachment 96 well plates (coming) in growth media supplemented with 10% FBS and incubated at 37° C. for 24 hours. The compounds were dissolved in DMSO (Sigma) to obtain 10 mM stock solution. Then the compounds were serially diluted in 3-fold to ten concentrations; 5 μL of the dilution above was transferred to 95 uL culture media to obtain the 50× compound stock solution; 4 uL of the 50× compound above was then transferred to the wells containing cells with 196 μL of the culture medium to obtain the final 1× concentration. The final concentration of DMSO was 0.1%. Spheroid cells were incubated in compounds for 5 days. Then 20 μL WST-8 solution (DOJINDO, Cell Counting KIT-8) was added to each well. The plates were further incubated at 37° C. for 1.5 hours, and then absorbance at 450 nm was measured using a microplate reader. Each compound was tested in triplicate and the IC50 value was calculated using GraphPad Prism.
The IC50 values of for Compounds disclosed are listed in Table 2, A: ≤500 nM; B: >500 nM and ≤5 μM; C: >5 μM and ≤50 μM; and D: >50 μM.
For `C[C@@H]1OCC2(CCN(c3cnc(Sc4ccnc(NC(=O)NS(=O)(=O)c5cncc(F)c5)c4Cl)cn3)CC2)[C@@H]1N` [Example 58, N-((4-((5-((3S,4S)-4-amino-3-methyl-2-oxa-8-azaspiro[4.5]decan-8-yl)pyrazin-2-yl)thio)-3-chloropyridin-2-yl)carbamoyl)-5-fluoropyridine-3-sulfonamide], the IC50 (as a rule, the midpoint of a concentration-inhibition curve) was no more than 500 nM. With `Cc1nc(N2CCC3(CC2)CO[C@@H](C)[C@H]3N)c(CO)nc1Sc1ccnc(NC(=O)NS(=O)(=O)c2ccccc2)c1Cl` [Example 59, N-((4-((5-((3S,4S)-4-amino-3-methyl-2-oxa-8-azaspiro[4.5]decan-8-yl)-6-(hydroxymethyl)-3-methylpyrazin-2-yl)thio)-3-chloropyridin-2-yl)carbamoyl)benzenesulfonamide] the figure was no more than 500 nM; with `C[C@@H]1OCC2(CCN(c3cnc(Sc4cncc(NC(=O)NS(=O)(=O)c5ccccc5)c4Cl)cn3)CC2)[C@@H]1N` [Example 60, N-((5-((5-((3S,4S)-4-amino-3-methyl-2-oxa-8-azaspiro[4.5]decan-8-yl)pyrazin-2-yl)thio)-4-chloropyridin-3-yl)carbamoyl)benzenesulfonamide], 500 to 5000 nM; with `C[C@@H]1OCC2(CCN(c3cnc(Sc4cccc(NC(=O)NS(=O)(=O)c5cccnc5)c4Cl)cn3)CC2)[C@@H]1N` [Example 61, N-((3-((5-((3S,4S)-4-amino-3-methyl-2-oxa-8-azaspiro[4.5]decan-8-yl)pyrazin-2-yl)thio)-2-chlorophenyl)carbamoyl)pyridine-3-sulfonamide], no more than 500 nM. For `C[C@@H]1OCC2(CCN(c3cnc(Sc4cccc(NC(=O)NS(=O)(=O)c5cccc(F)c5)c4Cl)cn3)CC2)[C@@H]1N` [Example 62, N-((3-((5-((3S,4S)-4-amino-3-methyl-2-oxa-8-azaspiro[4.5]decan-8-yl)pyrazin-2-yl)thio)-2-chlorophenyl)carbamoyl)-3-fluorobenzenesulfonamide] the value was no more than 500 nM; for `C[C@@H]1OCC2(CCN(c3cnc(Sc4cccc(NC(=O)NS(=O)(=O)c5ccccn5)c4Cl)cn3)CC2)[C@@H]1N` [Example 63, N-((3-((5-((3S,4S)-4-amino-3-methyl-2-oxa-8-azaspiro[4.5]decan-8-yl)pyrazin-2-yl)thio)-2-chlorophenyl)carbamoyl)pyridine-2-sulfonamide], no more than 500 nM; for `COc1ccc(S(=O)(=O)NC(=O)Nc2cccc(Sc3cnc(N4CCC5(CC4)CO[C@@H](C)[C@H]5N)cn3)c2Cl)cn1` [Example 64, N-((3-((5-((3S,4S)-4-amino-3-methyl-2-oxa-8-azaspiro[4.5]decan-8-yl)pyrazin-2-yl)thio)-2-chlorophenyl)carbamoyl)-6-methoxypyridine-3-sulfonamide], no more than 500 nM. With `Cc1noc(C)c1S(=O)(=O)NC(=O)Nc1cccc(Sc2cnc(N3CCC4(CC3)CO[C@@H](C)[C@H]4N)cn2)c1Cl` [Example 65, N-((3-((5-((3S,4S)-4-amino-3-methyl-2-oxa-8-azaspiro[4.5]decan-8-yl)pyrazin-2-yl)thio)-2-chlorophenyl)carbamoyl)-3,5-dimethylisoxazole-4-sulfonamide] the figure was no more than 500 nM.

For the compound `C[C@@H]1OCC2(CCN(c3cnc(Sc4cccc(NC(=O)NS(=O)(=O)C5CC5)c4Cl)cn3)CC2)[C@@H]1N` [Example 66, N-((3-((5-((3S,4S)-4-amino-3-methyl-2-oxa-8-azaspiro[4.5]decan-8-yl)pyrazin-2-yl)thio)-2-chlorophenyl)carbamoyl)cyclopropanesulfonamide], the IC50 was no more than 500 nM. For `N[C@@H]1c2cnccc2CC12CCN(c1cnc(Sc3cccc(NC(=O)NS(=O)(=O)c4ccccc4)c3Cl)cn1)CC2` [Example 67, (S)—N-((3-((5-(7-amino-5,7-dihydrospiro[cyclopenta[c]pyridine-6,4′-piperidin]-1′-yl)pyrazin-2-yl)thio)-2-chlorophenyl)carbamoyl)benzenesulfonamide] the value was no more than 500 nM; for `C[C@@H]1OCC2(CCN(c3cnc(Sc4cccc(NC(=O)NS(=O)(=O)C5CCOCC5)c4Cl)cn3)CC2)[C@@H]1N` [Example 68, N-((3-((5-((3S,4S)-4-amino-3-methyl-2-oxa-8-azaspiro[4.5]decan-8-yl)pyrazin-2-yl)thio)-2-chlorophenyl)carbamoyl)tetrahydro-2H-pyran-4-sulfonamide], no more than 500 nM. With `C[C@@H]1OCC2(CCN(c3cnc(Sc4cccc(NC(=O)NS(=O)(=O)C5CCCCC5)c4Cl)cn3)CC2)[C@@H]1N` [Example 69, N-((3-((5-((3S,4S)-4-amino-3-methyl-2-oxa-8-azaspiro[4.5]decan-8-yl)pyrazin-2-yl)thio)-2-chlorophenyl)carbamoyl)cyclohexanesulfonamide] the figure was no more than 500 nM; with `C[C@@H]1OCC2(CCN(c3cnc(Sc4cccc(NC(=O)NS(=O)(=O)C5CCN(C)CC5)c4Cl)cn3)CC2)[C@@H]1N` [Example 70, N-((3-((5-((3S,4S)-4-amino-3-methyl-2-oxa-8-azaspiro[4.5]decan-8-yl)pyrazin-2-yl)thio)-2-chlorophenyl)carbamoyl)-1-methylpiperidine-4-sulfonamide], no more than 500 nM; with `C[C@@H]1OCC2(CCN(c3cnc(Sc4ccnc(C(=O)NS(=O)(=O)c5ccccc5)c4Cl)cn3)CC2)[C@@H]1N` [Example 71, 4-((5-((3S,4S)-4-amino-3-methyl-2-oxa-8-azaspiro[4.5]decan-8-yl)pyrazin-2-yl)thio)-3-chloro-N-(phenylsulfonyl)picolinamide], 500 to 5000 nM. With `C[C@@H]1OCC2(CCN(c3cnc(Sc4cccc(NC(=O)NS(=O)(=O)c5ccncc5)c4Cl)cn3)CC2)[C@@H]1N` [Example 72, N-((3-((5-((3S,4S)-4-amino-3-methyl-2-oxa-8-azaspiro[4.5]decan-8-yl)pyrazin-2-yl)thio)-2-chlorophenyl)carbamoyl)pyridine-4-sulfonamide] the figure was no more than 500 nM. `C[C@@H]1OCC2(CCN(c3cnc(Sc4cccc(NC(=O)NS(=O)(=O)C5CCCC5)c4Cl)cn3)CC2)[C@@H]1N` [Example 73, N-((3-((5-((3S,4S)-4-amino-3-methyl-2-oxa-8-azaspiro[4.5]decan-8-yl)pyrazin-2-yl)thio)-2-chlorophenyl)carbamoyl)cyclopentanesulfonamide]: the IC50 is no more than 500 nM.

Regarding `C[C@@H]1OCC2(CCN(c3cnc(Sc4cccc(NC(=O)NS(=O)(=O)N5CCOCC5)c4Cl)cn3)CC2)[C@@H]1N` [Example 74, N-((3-((5-((3S,4S)-4-amino-3-methyl-2-oxa-8-azaspiro[4.5]decan-8-yl)pyrazin-2-yl)thio)-2-chlorophenyl)carbamoyl)morpholine-4-sulfonamide], the IC50 was no more than 500 nM. As for `C[C@@H]1OCC2(CCN(c3cnc(Sc4cccc(NC(=O)NS(=O)(=O)N5CCCCC5)c4Cl)cn3)CC2)[C@@H]1N` [Example 75, N-((3-((5-((3S,4S)-4-amino-3-methyl-2-oxa-8-azaspiro[4.5]decan-8-yl)pyrazin-2-yl)thio)-2-chlorophenyl)carbamoyl)piperidine-1-sulfonamide], the 50% inhibitory concentration (IC50) was no more than 500 nM. With `Cc1noc(C)c1S(=O)(=O)NC(=O)Nc1nccc(Sc2cnc(N3CCC4(CC3)CO[C@@H](C)[C@H]4N)cn2)c1Cl` [Example 76, N-((4-((5-((3S,4S)-4-amino-3-methyl-2-oxa-8-azaspiro[4.5]decan-8-yl)pyrazin-2-yl)thio)-3-chloropyridin-2-yl)carbamoyl)-3,5-dimethylisoxazole-4-sulfonamide] the figure was no more than 500 nM. With `C[C@@H]1OCC2(CCN(c3cnc(Sc4ccnc(NC(=O)NS(C)(=O)=O)c4Cl)cn3)CC2)[C@@H]1N` [Example 77, N-((4-((5-((3S,4S)-4-amino-3-methyl-2-oxa-8-azaspiro[4.5]decan-8-yl)pyrazin-2-yl)thio)-3-chloropyridin-2-yl)carbamoyl)methanesulfonamide] the figure was no more than 500 nM; with `C[C@@H]1OCC2(CCN(c3cnc(Sc4cccc(NC(=O)NS(=O)(=O)c5ccc(F)cc5)c4Cl)cn3)CC2)[C@@H]1N` [Example 78, N-((3-((5-((3S,4S)-4-amino-3-methyl-2-oxa-8-azaspiro[4.5]decan-8-yl)pyrazin-2-yl)thio)-2-chlorophenyl)carbamoyl)-4-fluorobenzenesulfonamide], no more than 500 nM. `C[C@@H]1OCC2(CCN(c3cnc(Sc4cccc(NC(=O)NS(=O)(=O)c5cnn(C)c5)c4Cl)cn3)CC2)[C@@H]1N` [Example 79, N-((3-((5-((3S,4S)-4-amino-3-methyl-2-oxa-8-azaspiro[4.5]decan-8-yl)pyrazin-2-yl)thio)-2-chlorophenyl)carbamoyl)-1-methyl-1H-pyrazole-4-sulfonamide]: the IC50 was no more than 500 nM. Regarding `C[C@@H]1OCC2(CCN(c3cnc(Sc4cccc(NS(=O)(=O)NC(=O)c5ccccc5)c4Cl)cn3)CC2)[C@@H]1N` [Example 80, N—(N-(3-((5-((3S,4S)-4-amino-3-methyl-2-oxa-8-azaspiro[4.5]decan-8-yl)pyrazin-2-yl)thio)-2-chlorophenyl)sulfamoyl)benzamide], the IC50 was no more than 500 nM.
